Data: ChEMBL document CHEMBL1131296 (J Med Chem, 1998)

Tests used:
[1] = target: T1, Alpha-1B adrenergic receptor (Rattus norvegicus, UniProt P15823); experiment: Antagonism of phenylephrine stimulated contraction of the rat isolated spleen.; assay type: functional, tissue-based; conditions: read-out: pA2 (converted)
T1 sequence (P15823 whole entry): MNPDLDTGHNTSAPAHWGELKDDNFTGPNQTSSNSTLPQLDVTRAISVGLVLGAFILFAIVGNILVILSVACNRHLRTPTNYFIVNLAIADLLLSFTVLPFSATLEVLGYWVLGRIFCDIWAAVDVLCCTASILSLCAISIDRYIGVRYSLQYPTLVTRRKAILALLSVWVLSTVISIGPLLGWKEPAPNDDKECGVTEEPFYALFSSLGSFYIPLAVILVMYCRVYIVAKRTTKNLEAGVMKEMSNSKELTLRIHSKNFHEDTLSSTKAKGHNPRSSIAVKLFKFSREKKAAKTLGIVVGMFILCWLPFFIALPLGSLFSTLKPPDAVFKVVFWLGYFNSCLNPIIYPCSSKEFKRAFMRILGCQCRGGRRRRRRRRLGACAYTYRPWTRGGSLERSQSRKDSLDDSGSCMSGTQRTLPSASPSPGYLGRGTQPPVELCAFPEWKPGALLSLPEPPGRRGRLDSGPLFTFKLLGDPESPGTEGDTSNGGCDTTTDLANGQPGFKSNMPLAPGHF

[2] = target: T2, Alpha-1A adrenergic receptor (Rattus norvegicus, UniProt P43140); experiment: Antagonism of the norepinephrine induced contraction of rat isolated prostatic vas deferens.; assay type: functional; conditions: read-out: pA2 (converted)
T2 sequence (P43140 whole entry): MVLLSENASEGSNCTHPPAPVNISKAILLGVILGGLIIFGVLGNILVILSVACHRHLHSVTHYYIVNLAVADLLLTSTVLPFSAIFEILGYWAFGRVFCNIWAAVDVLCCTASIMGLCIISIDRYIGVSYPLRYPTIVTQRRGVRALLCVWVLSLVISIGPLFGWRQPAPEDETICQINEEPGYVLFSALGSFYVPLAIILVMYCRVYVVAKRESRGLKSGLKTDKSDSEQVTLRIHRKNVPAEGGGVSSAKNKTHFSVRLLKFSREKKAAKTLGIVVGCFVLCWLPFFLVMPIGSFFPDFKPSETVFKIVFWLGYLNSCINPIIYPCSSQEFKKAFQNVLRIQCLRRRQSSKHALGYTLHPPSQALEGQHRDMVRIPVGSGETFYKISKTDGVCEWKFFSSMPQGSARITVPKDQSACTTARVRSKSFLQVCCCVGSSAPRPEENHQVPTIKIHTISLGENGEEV

[3] = target: T3, Alpha-1D adrenergic receptor (Rattus norvegicus, UniProt P23944); experiment: Antagonism of norepinephrine induced contraction of rat isolated thoracic aorta.; assay type: functional, tissue-based; conditions: read-out: pA2 (converted)
T3 sequence (P23944 whole entry): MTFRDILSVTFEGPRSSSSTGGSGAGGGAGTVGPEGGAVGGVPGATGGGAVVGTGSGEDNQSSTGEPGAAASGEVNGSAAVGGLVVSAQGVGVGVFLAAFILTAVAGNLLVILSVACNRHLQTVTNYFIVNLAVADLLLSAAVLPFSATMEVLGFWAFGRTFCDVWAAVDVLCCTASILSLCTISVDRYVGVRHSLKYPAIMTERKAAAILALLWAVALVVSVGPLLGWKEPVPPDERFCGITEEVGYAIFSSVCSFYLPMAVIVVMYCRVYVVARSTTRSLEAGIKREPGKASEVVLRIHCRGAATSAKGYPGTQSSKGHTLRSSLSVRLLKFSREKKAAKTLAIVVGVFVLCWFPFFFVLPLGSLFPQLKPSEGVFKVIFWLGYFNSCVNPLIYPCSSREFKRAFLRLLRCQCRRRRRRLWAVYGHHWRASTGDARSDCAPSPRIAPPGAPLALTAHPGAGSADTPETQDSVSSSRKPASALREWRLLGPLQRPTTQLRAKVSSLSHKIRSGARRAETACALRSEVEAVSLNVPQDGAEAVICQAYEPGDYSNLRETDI

[4] = target: T4, Adrenergic receptor alpha-2 (Rattus norvegicus, UniProt P22086+P19328+P22909); experiment: Antagonism of the clonidine-induced depression of twitch responses of rat isolated prostatic vas deferens.
T4 sequence (P22086 whole entry): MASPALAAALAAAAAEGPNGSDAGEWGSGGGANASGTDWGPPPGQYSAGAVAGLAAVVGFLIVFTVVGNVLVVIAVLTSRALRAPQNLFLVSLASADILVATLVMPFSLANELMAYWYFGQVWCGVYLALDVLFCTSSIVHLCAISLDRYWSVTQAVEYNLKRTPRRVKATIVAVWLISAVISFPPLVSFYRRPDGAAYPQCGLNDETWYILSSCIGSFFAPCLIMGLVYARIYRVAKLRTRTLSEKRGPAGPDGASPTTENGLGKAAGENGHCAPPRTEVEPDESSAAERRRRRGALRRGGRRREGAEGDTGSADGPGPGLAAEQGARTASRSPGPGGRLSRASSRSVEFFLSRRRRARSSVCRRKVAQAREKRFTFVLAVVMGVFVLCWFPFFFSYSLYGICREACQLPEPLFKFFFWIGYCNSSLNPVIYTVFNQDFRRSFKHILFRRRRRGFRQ
T4 sequence (P19328 whole entry): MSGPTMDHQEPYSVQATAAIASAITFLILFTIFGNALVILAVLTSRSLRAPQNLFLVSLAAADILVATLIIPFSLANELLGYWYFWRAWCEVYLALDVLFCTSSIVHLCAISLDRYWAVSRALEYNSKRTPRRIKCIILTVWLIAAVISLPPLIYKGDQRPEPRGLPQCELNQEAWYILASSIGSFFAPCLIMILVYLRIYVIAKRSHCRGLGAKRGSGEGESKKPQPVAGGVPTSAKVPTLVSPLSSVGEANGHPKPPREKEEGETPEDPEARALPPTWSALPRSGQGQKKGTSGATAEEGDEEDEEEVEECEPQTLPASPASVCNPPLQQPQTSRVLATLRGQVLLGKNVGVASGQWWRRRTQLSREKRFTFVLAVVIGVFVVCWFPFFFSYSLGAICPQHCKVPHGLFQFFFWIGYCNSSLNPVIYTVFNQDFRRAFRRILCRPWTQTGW
T4 sequence (P22909 whole entry): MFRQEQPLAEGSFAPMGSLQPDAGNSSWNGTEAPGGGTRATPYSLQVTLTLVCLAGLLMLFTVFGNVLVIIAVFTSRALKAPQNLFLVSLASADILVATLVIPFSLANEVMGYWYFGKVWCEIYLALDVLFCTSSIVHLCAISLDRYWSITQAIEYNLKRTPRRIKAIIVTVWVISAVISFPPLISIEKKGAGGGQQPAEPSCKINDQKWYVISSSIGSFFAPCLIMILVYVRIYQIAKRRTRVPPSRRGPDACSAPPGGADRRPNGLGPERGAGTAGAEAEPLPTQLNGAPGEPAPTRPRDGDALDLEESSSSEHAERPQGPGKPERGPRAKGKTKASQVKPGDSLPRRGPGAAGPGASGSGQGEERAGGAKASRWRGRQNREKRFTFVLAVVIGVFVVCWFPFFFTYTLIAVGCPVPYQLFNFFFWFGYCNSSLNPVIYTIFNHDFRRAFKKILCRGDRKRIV

[5] = target: T5, Alpha-1B adrenergic receptor (Homo sapiens, UniProt P35368); experiment: Binding affinity at human cloned Alpha-1B adrenergic receptor in chinese hamster ovary cells by [3H]prazosin displacement.; assay type: cell-based, CHO
T5 sequence (P35368 whole entry): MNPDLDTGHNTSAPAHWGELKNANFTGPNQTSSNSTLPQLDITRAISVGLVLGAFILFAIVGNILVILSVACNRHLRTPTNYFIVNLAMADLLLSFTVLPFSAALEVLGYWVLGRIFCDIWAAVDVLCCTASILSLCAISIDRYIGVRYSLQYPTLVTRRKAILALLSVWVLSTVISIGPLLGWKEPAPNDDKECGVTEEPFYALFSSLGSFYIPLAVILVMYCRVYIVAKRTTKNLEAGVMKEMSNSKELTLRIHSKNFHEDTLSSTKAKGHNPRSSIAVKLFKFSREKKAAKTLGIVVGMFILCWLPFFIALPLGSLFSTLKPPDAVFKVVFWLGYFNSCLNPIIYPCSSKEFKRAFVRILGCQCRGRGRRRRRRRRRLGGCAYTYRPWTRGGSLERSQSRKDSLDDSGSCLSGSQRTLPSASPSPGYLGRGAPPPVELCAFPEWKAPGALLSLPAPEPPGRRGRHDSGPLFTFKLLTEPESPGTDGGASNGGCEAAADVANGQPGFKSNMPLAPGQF

SMILES	Kb [1]	Kb [2]	Kb [3]	pA2 [4]	Ki [5]
CNCCCCCCN(C)Cc1cccc(C(=O)N(C)CCCCCCN(C)c2nc(N)c3cc(OC)c(OC)cc3n2)c1	19.5 nM	8.91 nM	14.5 nM	< 5	
COc1cc2nc(N(C)CCCCCCN(C)C(=O)c3ccc(CCl)o3)nc(N)c2cc1OC	1.07 nM	6.76 nM	0.407 nM	< 5	
COc1cc2nc(N(C)CCSSCCN(C)C(=O)c3ccc(CCl)o3)nc(N)c2cc1OC	42.7 nM	16.6 nM	9.33 nM	< 5	
CNCCCCCCN(C)Cc1ccc(C(=O)N(C)CCCCCCN(C)c2nc(N)c3cc(OC)c(OC)cc3n2)cc1	0.617 nM	191 nM	3.47 nM	5.6	
COc1cc2nc(N(C)CCCCCCN(C)C(=O)c3ccccc3CNCCCCCCN)nc(N)c2cc1OC	0.676 nM	10.7 nM	3.16 nM	5.47	
COc1cc2nc(N(C)CCCCCCN(C)C(=O)c3ccc(CN4CCSC4)cc3)nc(N)c2cc1OC	9.77 nM	58.9 nM	6.76 nM	< 5	
COc1cc2nc(N(C)CCCCCCN(C)C(=O)c3cccc(CN4CCSC4)c3)nc(N)c2cc1OC	9.33 nM	15.1 nM	3.09 nM	5.94	
COc1cc2nc(N(C)CCCCCCN(C)C(=O)c3ccccc3CCl)nc(N)c2cc1OC	1.86 nM	417 nM	2.82 nM	5.31	
COc1cc2nc(N(C)CCCCCCN(C)C(=O)c3ccc(CN(C)C)o3)nc(N)c2cc1OC	2.4 nM	38.9 nM	5.89 nM	< 5	
COc1ccccc1N1CCN(CCN2C(=O)CC3(CCCC3)CC2=O)CC1 [BMY-7378]				< 5	64.6 nM
COc1cc2nc(N(C)CCCCCCN(C)C(=O)c3cccc(CCl)c3)nc(N)c2cc1OC	66.1 nM	79.4 nM	51.3 nM	< 5	
COc1cc2nc(N(C)CCCCCCN(C)C(=O)c3ccccc3)nc(N)c2cc1OC	0.447 nM	38 nM	6.92 nM	6.52	
COc1cc2nc(N(C)CCCCCCN(C)C(=O)c3ccccc3CN(C)C)nc(N)c2cc1OC	13.2 nM	91.2 nM	5.5 nM	< 5	
COc1cc2nc(N(C)CCCCCCN(C)C(=O)c3ccc(CCl)cc3)nc(N)c2cc1OC	0.708 nM	77.6 nM	19.5 nM	5.54	
COc1cc2nc(N(C)CCCCCCN(C)C(=O)c3ccc(CN(C)C)cc3)nc(N)c2cc1OC	2.95 nM	72.4 nM	13.8 nM	5.12	
COc1cc2nc(N(C)CCSSCCN(C)C(=O)c3ccc(CN(C)C)o3)nc(N)c2cc1OC	53.7 nM	200 nM	6.03 nM	< 5	
COc1cc2nc(N(C)CCCCCCN(C)C(=O)c3cccc(CN)c3)nc(N)c2cc1OC	2.45 nM	47.9 nM	2.04 nM	5.44	
